These results are taken from DBAASP.

Values after ≈ are worked out from the molar mass of the structure shown.

Common to all, as to assay: ≥ marks a high value that may be exact or a test limit, other limits are often not marked, values filed in µg/mL are converted to µM
Assay [1] relates to Klebsiella pneumoniae.
In assay [2] the test system is Escherichia coli ATCC 25922.
Assay [3] has as its system Pseudomonas aeruginosa ATCC 27853.
The test system of assay [4] is Escherichia coli ATCC 8739.
In assay [5] the test system is Staphylococcus aureus KCTC 1621.
The test system of assay [6] is Pseudomonas aeruginosa KCTC 1637.
In assay [7] the test system is Staphylococcus epidermidis KCTC 1917.
For assay [8], the system named is Bacillus subtilis KCTC 3068.
Assay [9] relates to Escherichia coli KCTC 1682.
The test system of assay [10] is Salmonella typhimurium KCTC 1926.
The test system of assay [11] is Staphylococcus aureus ATCC 25923.
Assay [12] deals with Salmonella enterica subsp. enterica serovar Typhimurium C77-31.
The subject of assay [13] is Escherichia coli UB1005.
The subject of assay [14] is Staphylococcus aureus ATCC 29213.
The test system of assay [15] is Staphylococcus epidermidis ATCC 12228.
Assay [16] relates to Pseudomonas aeruginosa.
For assay [17], the system named is Staphylococcus aureus.
In assay [18] the test system is Escherichia coli.
The test system of assay [19] is Acinetobacter baumannii.

Turning to `CC[C@H](C)[C@H](NC(=O)[C@H](CCCCN)NC(=O)[C@H](CCCN=C(N)N)NC(=O)CNC(=O)[C@H](CC(C)C)NC(=O)[C@H](CCCN=C(N)N)NC(=O)[C@H](CCCN=C(N)N)NC(=O)[C@H](CC(C)C)NC(=O)CNC(=O)CNC(C)=O)C(=O)N[C@@H](CC(C)C)C(=O)N[C@@H](CCCN=C(N)N)C(=O)N[C@@H](C)C(=O)N[C@H](C(=O)N[C@@H](CCCCN)C(=O)N[C@@H](CCCCN)C(=O)N[C@@H](Cc1ccc(O)cc1)C(=O)NCC(N)=O)C(C)C` [GGLRRLGRKILRAVKKYG], the MIC – broadly, the least concentration at which growth counts as inhibited – in assay [1] came out at 8.84 µM (≈ 18.4 µg/mL); in assay [2], 8.84 µM (≈ 18.4 µg/mL); in assay [3] it was 8.84 µM (≈ 18.4 µg/mL); in [4], 4.42 µM (≈ 9.2 µg/mL).
For `CC[C@H](C)[C@H](NC(=O)[C@H](CCCCN)NC(=O)[C@H](CC(C)C)NC(=O)CNC(=O)[C@H](CC(C)C)NC(=O)[C@H](CO)NC(=O)[C@H](CCCN=C(N)N)NC(=O)[C@H](CC(C)C)NC(=O)CNC(=O)CNC(C)=O)C(=O)N[C@@H](CC(C)C)C(=O)N[C@@H](CC(C)C)C(=O)N[C@@H](C)C(=O)N[C@@H](Cc1c[nH]c2ccccc12)C(=O)N[C@@H](CCCCN)C(=O)N[C@@H](CCCCN)C(=O)N[C@@H](Cc1ccc(O)cc1)C(=O)NCC(N)=O` [GGLRSLGLKILLAWKKYG], the MIC in [1] was over 100 µM; in [2], over 100 µM; in assay [3], over 100 µM; in [4] it was at least 100 µM.
As for `CC(C)C[C@H](NC(=O)[C@H](Cc1ccc(O)cc1)NC(=O)[C@H](Cc1cnc[nH]1)NC(=O)[C@@H](NC(=O)[C@H](CC(C)C)NC(=O)[C@H](C)NC(=O)[C@H](C)NC(=O)[C@H](CCCCN)NC(=O)CNC(=O)[C@@H](NC(=O)[C@H](Cc1cnc[nH]1)NC(=O)[C@H](CCCCN)NC(=O)[C@H](C)NC(=O)[C@@H](NC(=O)[C@H](Cc1cnc[nH]1)NC(=O)[C@H](C)NC(=O)[C@H](C)NC(=O)[C@H](CCCCN)NC(=O)[C@H](CCCCN)NC(=O)[C@H](Cc1ccccc1)NC(=O)[C@H](Cc1ccccc1)NC(=O)[C@H](CO)NC(=O)CNC(=O)[C@H](Cc1c[nH]c2ccccc12)NC(=O)CN)C(C)C)C(C)C)[C@@H](C)O)C(=O)O` [GWGSFFKKAAHVAKHVGKAALTHYL], the MIC in assay [5] is 1 µM (≈ 2.73 µg/mL); in [6], 2 µM (≈ 5.45 µg/mL); in assay [7] it was 1 µM (≈ 2.73 µg/mL); in assay [8], 4 µM (≈ 10.9 µg/mL); in assay [9], 4 µM (≈ 10.9 µg/mL); in assay [10], 2 µM (≈ 5.45 µg/mL).
As for `CC[C@H](C)[C@H](NC(=O)[C@H](CCCCN)NC(=O)[C@H](Cc1c[nH]c2ccccc12)NC(=O)[C@H](Cc1ccccc1)NC(=O)[C@H](CC(C)C)NC(=O)[C@H](CCCCN)NC(=O)[C@H](CCCCN)NC(=O)[C@@H](N)CCCCN)C(=O)N1CCC[C@H]1C(=O)N[C@@H](CCCCN)C(=O)N[C@@H](Cc1ccccc1)C(=O)N[C@@H](CC(C)C)C(=O)N[C@@H](Cc1cnc[nH]1)C(=O)N[C@@H](CC(C)C)C(=O)N[C@@H](C)C(=O)N[C@@H](CCCCN)C(=O)N[C@@H](CCCCN)C(=O)N[C@@H](Cc1ccccc1)C(N)=O` [KKKLFWKIPKFLHLAKKF], the MIC in [5] amounted to 2 µM (≈ 4.6 µg/mL); in [6], 2 µM (≈ 4.6 µg/mL); in assay [7], 1 µM (≈ 2.3 µg/mL); in assay [8] it was 1 µM (≈ 2.3 µg/mL); in [9], 2 µM (≈ 4.6 µg/mL); in [10], 1 µM (≈ 2.3 µg/mL).
With `CC[C@H](C)[C@H](NC(=O)[C@H](CCCCN)NC(=O)[C@H](CO)NC(=O)[C@H](C)NC(=O)[C@@H](NC(=O)[C@H](CCCN=C(N)N)NC(=O)[C@H](CC(=O)O)NC(=O)[C@H](CC(C)C)NC(=O)[C@H](CC(C)C)NC(=O)[C@H](CCCCN)NC(=O)[C@H](CC(C)C)NC(=O)[C@@H](NC(=O)[C@@H](NC(=O)[C@H](CC(N)=O)NC(=O)[C@H](CC(N)=O)NC(=O)[C@@H](NC(=O)[C@H](CCCCN)NC(=O)[C@H](CCCCN)NC(=O)[C@@H]1CCCN1)[C@@H](C)CC)[C@@H](C)O)[C@@H](C)CC)C(C)C)C(=O)O` [PKKINNTILKLLDRVASKI], the minimal inhibitory concentration (MIC) in assay [4] is 29.6 µM (≈ 64 µg/mL).
In the case of `CC[C@H](C)[C@H](NC(=O)[C@H](CCCCN)NC(=O)[C@H](CO)NC(=O)[C@H](CO)NC(=O)[C@H](CC(C)C)NC(=O)[C@H](CCCCN)NC(=O)[C@H](CCCCN)NC(=O)[C@H](CC(C)C)NC(=O)[C@H](CC(C)C)NC(=O)[C@H](CCCCN)NC(=O)[C@H](CCC(N)=O)NC(=O)[C@H](Cc1ccc(O)cc1)NC(=O)[C@H](Cc1ccccc1)NC(=O)[C@H](CCC(N)=O)NC(=O)[C@H](CO)NC(=O)[C@H](CCC(=O)O)NC(=O)[C@H](CCCN=C(N)N)NC(=O)[C@H](CC(N)=O)NC(=O)[C@@H]1CCCN1)C(=O)O` [PNRESQFYQKLLKKLSSKI], the MIC is 111 µM (≈ 256 µg/mL) in [11] and at least 111 µM in assay [4].
As for `CC(C)C[C@H](NC(=O)[C@H](CCCN=C(N)N)NC(=O)[C@@H](NC(=O)[C@H](CCCN=C(N)N)NC(=O)[C@@H](NC(=O)[C@H](CCCCN)NC(=O)[C@@H](NC(=O)[C@H](CCCN=C(N)N)NC(=O)[C@H](CC(C)C)NC(=O)[C@H](CCCN=C(N)N)NC(=O)[C@@H](N)C(C)C)C(C)C)[C@@H](C)O)C(C)C)C(=O)N[C@@H](CCCCN)C(N)=O` [VRLRVKTRVRLK], the minimal inhibitory concentration (MIC) in assay [12] is 16 µM (≈ 24.4 µg/mL); in assay [13], 4 µM (≈ 6.09 µg/mL); in [14], 16 µM (≈ 24.4 µg/mL); in assay [2] it was 4 µM (≈ 6.09 µg/mL); in [11], 64 µM (≈ 97.5 µg/mL); in assay [15], 32 µM (≈ 48.7 µg/mL).
`CC(C)C[C@H](NC(=O)[C@H](Cc1c[nH]c2ccccc12)NC(=O)[C@H](CCCN=C(N)N)NC(=O)[C@H](CCCCN)NC(=O)[C@H](Cc1c[nH]c2ccccc12)NC(=O)[C@H](CCCN=C(N)N)NC(=O)[C@H](CCC(N)=O)NC(=O)[C@@H](NC(=O)[C@H](Cc1c[nH]c2ccccc12)NC(=O)[C@H](CCCN=C(N)N)NC(=O)[C@H](CCCCN)NC(=O)[C@@H](N)Cc1c[nH]c2ccccc12)C(C)C)C(=O)N[C@@H](CCCN=C(N)N)C(N)=O` [WKRWVQRWKRWLR]: the MIC came to 2 µM (≈ 3.97 µg/mL) in assay [5]; 16 µM (≈ 31.7 µg/mL) in assay [6]; 4 µM (≈ 7.93 µg/mL) in [7]; 8 µM (≈ 15.9 µg/mL) in assay [8]; 4 µM (≈ 7.93 µg/mL) in [9]; 2 µM (≈ 3.97 µg/mL) in [10].
Regarding `CC(C)[C@H](NC(=O)[C@H](CCCCN)NC(=O)[C@H](Cc1c[nH]c2ccccc12)NC(=O)[C@H](CCCCN)NC(=O)[C@@H](NC(=O)[C@H](CCCCN)NC(=O)[C@H](Cc1c[nH]c2ccccc12)NC(=O)[C@H](CCCCN)NC(=O)[C@@H](NC(=O)[C@H](CCCCN)NC(=O)[C@@H](N)Cc1c[nH]c2ccccc12)C(C)C)C(C)C)C(=O)N[C@@H](CCCCN)C(N)=O` [WKVKWKVKWKVK], the MIC in assay [12] came out at 2 µM (≈ 3.28 µg/mL); in assay [13] it was 2 µM (≈ 3.28 µg/mL); in [16] it was 4 µM (≈ 6.57 µg/mL); in assay [14], 1 µM (≈ 1.64 µg/mL); in assay [17], 2 µM (≈ 3.28 µg/mL); in assay [2], 2 µM (≈ 3.28 µg/mL). Further, the MIC in assay [11] was determined as 2 µM (≈ 3.28 µg/mL); in assay [15] it was 2 µM (≈ 3.28 µg/mL); in assay [18], 1 µM (≈ 1.64 µg/mL); in assay [19], 1.41 µM (≈ 2.32 µg/mL).
Take `C[C@@H](O)[C@H](NC(=O)[C@H](CCCN=C(N)N)NC(=O)[C@H](Cc1c[nH]c2ccccc12)NC(=O)[C@H](CCCN=C(N)N)NC(=O)[C@@H](NC(=O)[C@H](CCCN=C(N)N)NC(=O)[C@H](Cc1c[nH]c2ccccc12)NC(=O)[C@H](CCCN=C(N)N)NC(=O)[C@@H](NC(=O)[C@H](CCCN=C(N)N)NC(=O)[C@@H](N)Cc1c[nH]c2ccccc12)[C@@H](C)O)[C@@H](C)O)C(=O)N[C@@H](CCCN=C(N)N)C(N)=O` [WRTRWRTRWRTR]: the MIC in assay [12] was 4 µM (≈ 7.26 µg/mL); in assay [13], 4 µM (≈ 7.26 µg/mL); in [16], over 64 µM; in assay [14], 4 µM (≈ 7.26 µg/mL); in assay [17], 4 µM (≈ 7.26 µg/mL); in assay [2] it was 4 µM (≈ 7.26 µg/mL). Besides, the MIC in [11] was 8 µM (≈ 14.5 µg/mL); in assay [15], 8 µM (≈ 14.5 µg/mL); in assay [18], 2 µM (≈ 3.63 µg/mL); in assay [19], at least 32 µM.
